Assay results reported in US20140303164A1, “THERAPEUTIC COMPOUNDS” (Gilead Sciences, Inc., priority 2013, published 2014).

Experiments:
HIV-IIIb = assay: Test A: Antiviral Assay in MT4 Cells; assay type: cell-based, HIV-1; details: Human immunodeficiency virus 1, IIIB, MT4, 120 h; for inhibition at 0.2 µM: read-out: % inhibition at 0.2 μM; for inhibition at 2 µM: read-out: % inhibition at 2 μM
Method: Test A: Antiviral Assay in MT4 Cells
(§1) MT-4 cells were next mixed with HIV-IIIb at an m.o.i of 0.003 for 1 hour, after which time 35 μL of virus/cell mixture (2000 cells) was immediately added to each well containing 40 μL of diluted compound. The plates were then incubated at 37° C. for 5 days. […] Cell lysis was carried out by incubating at room temperature for 10 min and then chemiluminescence was read.

[1] = Test B: Cytotoxicity Assay; assay type: cell-based; details: human, uninfected MT-4 cells, same protocol as Test A
Method: as §1
Test B: Cytotoxicity Assay
Compound cytotoxicity and the corresponding CC50 values was determined using the same protocol as described in the antiviral assay (Test A) except that uninfected cells were used.

SMILES	inhibition at 0.2 µM (HIV-IIIb)	inhibition at 2 µM (HIV-IIIb)	CC50 at 5 days [1]
Cn1nc(N)c2cccc(-c3ccc(C#CC(C)(C)O)nc3[C@H](Cc3cc(F)cc(F)c3)NC(=O)Cn3nc(C(F)F)c4c3C(F)(F)CCC4(F)F)c21 [Compound 31, (S)—N-(1-(3-(3-amino-1-methyl-1H-indazol-7-yl)-6-(3-hydroxy-3-methylbut-1-yn-1-yl)pyridin-2-yl)-2-(3,5-difluorophenyl)ethyl)-2-(3-(difluoromethyl)-4,4,7,7-tetrafluoro-4,5,6,7-tetrahydro-1H-indazol-1-yl)acetamide]	89%	89%	8.03 µM
Cn1nc(N)c2cccc(-c3ccc(C#CC(C)(C)O)nc3[C@H](Cc3cc(F)cc(F)c3)NC(=O)Cn3nc(C(F)F)c4c3C(F)(F)[C@@H]3C[C@H]43)c21 [Compound 32, N—((S)-1-(3-(3-amino-1-methyl-1H-indazol-7-yl)-6-(3-hydroxy-3-methylbut-1-yn-1-yl)pyridin-2-yl)-2-(3,5-difluorophenyl)ethyl)-2-((3b-S,4aR)-3-(difluoromethyl)-5,5-difluoro-3b,4,4a,5-tetrahydro-1H-cyclopropa[3,4]cyclopenta[1,2-c]pyrazol-1-yl)acetamide]	84%	84%	9.18 µM
Cn1nc(NS(C)(=O)=O)c2cccc(-c3ccc(C#CC(C)(C)O)nc3[C@H](Cc3cc(F)cc(F)c3)NC(=O)Cn3nc(C(F)(F)F)c4c3C(F)(F)[C@@H]3C[C@H]43)c21 [Compound 33F, 2-((3bS,4aR)-5,5-difluoro-3-(trifluoromethyl)-3b,4,4a,5-tetrahydro-1H-cyclopropa[3,4]cyclopenta[1,2-c]pyrazol-1-yl)-N—((S)-2-(3,5-difluorophenyl)-1-(6-(3-hydroxy-3-methylbut-1-yn-1-yl)-3-(1-methyl-3-(methylsulfonamido)-1H-indazol-7-yl)pyridin-2-yl)ethyl)acetamide]	93%	93%	12.9 µM
Cn1nc(N)c2cccc(-c3ccc(C#CC(C)(C)O)nc3[C@H](Cc3cc(F)cc(F)c3)NC(=O)Cn3nc(C(F)F)c4c3C3CC3CC4)c21 (stereo partly drawn) [Compound 34, N—((S)-1-(3-(3-amino-1-methyl-1H-indazol-7-yl)-6-(3-hydroxy-3-methylbut-1-yn-1-yl)pyridin-2-yl)-2-(3,5-difluorophenyl)ethyl)-2-(3-(difluoromethyl)-5,5a,6,6a-tetrahydrocyclopropa[g]indazol-1(4H)-yl)acetamide]	78%	78%	8.76 µM
CC(C)(O)C#Cc1ccc(-c2cc(C(=O)NC3COC3)c3nccn3c2)c([C@H](Cc2cc(F)cc(F)c2)NC(=O)Cn2nc(C(F)(F)F)c3c2C(F)(F)[C@@H]2C[C@H]32)n1 [Compound 35D, 6-(2-((S)-1-(2-((3bS,4aR)-5,5-difluoro-3-(trifluoromethyl)-3b,4,4a,5-tetrahydro-1H-cyclopropa[3,4]cyclopenta[1,2-c]pyrazol-1-yl)acetamido)-2-(3,5-difluorophenyl)ethyl)-6-(3-hydroxy-3-methylbut-1-yn-1-yl)pyridin-3-yl)-N-(oxetan-3-yl)imidazo[1,2-a]pyridine-8-carboxamide]	28%	91%	14.2 µM
CC(C)(O)C#Cc1ccc(-c2cnc3[nH]ccc3c2F)c([C@H](Cc2cc(F)cc(F)c2)NC(=O)Cn2nc(C(F)(F)F)c3c2C(F)(F)[C@@H]2C[C@H]32)n1 [Compound 36C, 2-((3bS,4aR)-5,5-difluoro-3-(trifluoromethyl)-3b,4,4a,5-tetrahydro-1H-cyclopropa[3,4]cyclopenta[1,2-c]pyrazol-1-yl)-N—((S)-2-(3,5-difluorophenyl)-1-(3-(4-fluoro-1H-pyrrolo[2,3-b]pyridin-5-yl)-6-(3-hydroxy-3-methylbut-1-yn-1-yl)pyridin-2-yl)ethyl)acetamide]	88%	92%	3.15 µM
Cn1nc(N)c2cccc(-c3cnc(C#CC(C)(C)O)nc3[C@H](Cc3cc(F)cc(F)c3)NC(=O)Cn3nc(C(F)F)c4c3C(F)(F)CCC4(F)F)c21 [Compound 37F, (S)—N-(1-(5-(3-amino-1-methyl-1H-indazol-7-yl)-2-(3-hydroxy-3-methylbut-1-yn-1-yl)pyrimidin-4-yl)-2-(3,5-difluorophenyl)ethyl)-2-(3-(difluoromethyl)-4,4,7,7-tetrafluoro-4,5,6,7-tetrahydro-1H-indazol-1-yl)acetamide]	90%	90%	6.35 µM
Cc1c(-c2ccc(C#CC(C)(C)O)nc2[C@H](Cc2cc(F)cc(F)c2)NC(=O)Cn2nc(C(F)F)c3c2C(F)(F)[C@@H]2C[C@H]32)ccc2n[nH]c(=O)n12 [Compound 38, 2-((3b-S,4aR)-3-(difluoromethyl)-5,5-difluoro-3b,4,4a,5-tetrahydro-1H-cyclopropa[3,4]cyclopenta[1,2-c]pyrazol-1-yl)-N—((S)-2-(3,5-difluorophenyl)-1-(6-(3-hydroxy-3-methylbut-1-yn-1-yl)-3-(5-methyl-3-oxo-2,3-dihydro-[1,2,4]triazolo[4,3-a]pyridin-6-yl)pyridin-2-yl)ethyl)acetamide]	96%	96%	13.5 µM
CC(C)(O)C#Cc1ccc(-c2cccc3c(NS(C)(=O)=O)noc23)c([C@H](Cc2cc(F)cc(F)c2)NC(=O)Cn2nc(C(F)(F)F)c3c2C(F)(F)[C@@H]2C[C@H]32)n1 [Compound 39C, 2-((3bS,4aR)-5,5-difluoro-3-(trifluoromethyl)-3b,4,4a,5-tetrahydro-1H-cyclopropa[3,4]cyclopenta[1,2-c]pyrazol-1-yl)-N—((S)-2-(3,5-difluorophenyl)-1-(6-(3-hydroxy-3-methylbut-1-yn-1-yl)-3-(3-(methylsulfonamido)benzo[d]isoxazol-7-yl)pyridin-2-yl)ethyl)acetamide]	7%	91%	26.5 µM
Cn1nc(NS(C)(=O)=O)c2cccc(-c3cnc(C#CC(C)(C)O)nc3[C@H](Cc3cc(F)cc(F)c3)NC(=O)Cn3nc(C(F)F)c4c3C(F)(F)CCC4(F)F)c21 [Compound 40, (S)-2-(3-(difluoromethyl)-4,4,7,7-tetrafluoro-4,5,6,7-tetrahydro-1H-indazol-1-yl)-N-(2-(3,5-difluorophenyl)-1-(2-(3-hydroxy-3-methylbut-1-yn-1-yl)-5-(1-methyl-3-(methylsulfonamido)-1H-indazol-7-yl)pyrimidin-4-yl)ethyl)acetamide]	87%	87%	8.72 µM
Cn1nc(NS(C)(=O)=O)c2cccc(-c3cnc(C#CC(C)(C)O)nc3[C@H](Cc3cc(F)cc(F)c3)NC(=O)Cn3nc(C(F)(F)F)c4c3C(F)(F)[C@@H]3C[C@H]43)c21 [Compound 41, 2-((3bS,4aR)-5,5-difluoro-3-(trifluoromethyl)-3b,4,4a,5-tetrahydro-1H-cyclopropa[3,4]cyclopenta[1,2-c]pyrazol-1-yl)-N—((S)-2-(3,5-difluorophenyl)-1-(2-(3-hydroxy-3-methylbut-1-yn-1-yl)-5-(1-methyl-3-(methylsulfonamido)-1H-indazol-7-yl)pyrimidin-4-yl)ethyl)acetamide]	98%	98%	7.63 µM
Cn1nc(NS(C)(=O)=O)c2cccc(-c3ccc(C#CC(C)(C)O)nc3[C@H](Cc3cc(F)cc(F)c3)NC(=O)Cn3nc(C(F)F)c4c3C(F)(F)CCC4(F)F)c21 [Compound 42, (S)-2-(3-(difluoromethyl)-4,4,7,7-tetrafluoro-4,5,6,7-tetrahydro-1H-indazol-1-yl)-N-(2-(3,5-difluorophenyl)-1-(6-(3-hydroxy-3-methylbut-1-yn-1-yl)-3-(1-methyl-3-(methylsulfonamido)-1H-indazol-7-yl)pyridin-2-yl)ethyl)acetamide]	100%	100%	11.8 µM
Cn1nc(NS(C)(=O)=O)c2cccc(-c3ccc(C#CC(C)(C)O)nc3[C@H](Cc3cc(F)cc(F)c3)NC(=O)Cn3nc(C(F)F)c4c3C3CC3CC4)c21 (stereo partly drawn) [Compound 43, 2-(3-(difluoromethyl)-5,5a,6,6a-tetrahydrocyclopropa[g]indazol-1(4H)-yl)-N—((S)-2-(3,5-difluorophenyl)-1-(6-(3-hydroxy-3-methylbut-1-yn-1-yl)-3-(1-methyl-3-(methylsulfonamido)-1H-indazol-7-yl)pyridin-2-yl)ethyl)acetamide]	100%	100%	15.4 µM
Cn1nc(NS(N)(=O)=O)c2cccc(-c3ccc(C#CC(C)(C)O)nc3[C@H](Cc3cc(F)cc(F)c3)NC(=O)Cn3nc(C(F)(F)F)c4c3C(F)(F)[C@@H]3C[C@H]43)c21 [Compound 44, 2-((3bS,4aR)-5,5-difluoro-3-(trifluoromethyl)-3b,4,4a,5-tetrahydro-1H-cyclopropa[3,4]cyclopenta[1,2-c]pyrazol-1-yl)-N—((S)-2-(3,5-difluorophenyl)-1-(6-(3-hydroxy-3-methylbut-1-yn-1-yl)-3-(1-methyl-3-(sulfamoylamino)-1H-indazol-7-yl)pyridin-2-yl)ethyl)acetamide]	94%	94%	6.82 µM
